Results from ChEMBL document CHEMBL1157212, “Classification of estrogen receptor-beta ligands on the basis of their binding affinities using support vector machine and linear discriminant analysis” (Eur J Med Chem, 2008).
pIC50: −log10 of the molar value.

Biological target: Estrogen receptor beta (Homo sapiens, UniProt Q92731)
Sequence (Q92731 whole entry): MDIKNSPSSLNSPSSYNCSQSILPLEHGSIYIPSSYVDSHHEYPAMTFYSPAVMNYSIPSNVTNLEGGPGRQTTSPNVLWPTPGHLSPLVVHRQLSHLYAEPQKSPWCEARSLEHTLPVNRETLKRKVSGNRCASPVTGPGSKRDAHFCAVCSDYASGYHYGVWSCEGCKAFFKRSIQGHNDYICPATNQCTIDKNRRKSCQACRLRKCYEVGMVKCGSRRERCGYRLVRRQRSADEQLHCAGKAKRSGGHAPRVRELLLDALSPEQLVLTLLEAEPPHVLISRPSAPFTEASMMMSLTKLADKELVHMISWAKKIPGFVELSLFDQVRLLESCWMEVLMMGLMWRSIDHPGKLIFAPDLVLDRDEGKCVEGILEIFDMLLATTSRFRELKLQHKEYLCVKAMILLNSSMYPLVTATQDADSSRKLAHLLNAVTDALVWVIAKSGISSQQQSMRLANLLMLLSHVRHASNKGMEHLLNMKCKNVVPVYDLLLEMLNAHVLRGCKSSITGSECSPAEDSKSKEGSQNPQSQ
Description: Binding affinity to ERbeta

First: O=C(O)c1cc(O)cc2nc(-c3ccc(O)cc3)oc12
Second: C/C=C/c1cc(O)cc2nc(-c3ccc(O)cc3)oc12
The pIC50 of the first is 1.55 log units lower: 5.30 for the first, 6.85 for the second. The second is the more potent here.

Work on `Oc1ccc(-c2nc3cc(O)cc(Br)c3o2)c(C(F)(F)F)c1` yielded a pIC50 of 8.85.
